The nature of data set [1]: Solubility in aqueous conditions. Format: physicochemical.
In data set [2] the target is T1, human DUB module (hDUBm; USP22, ATXN7, ATXN7L3, ENY2) (Homo sapiens, UniProt Q9UPT9).
T1 construct: 6xHis (TEV-cleavable) (N, cleaved yes); made in house; host or cells: High Five insect cells (baculovirus, Bac2Bac; virus amplified in Sf9)
The experiment in a line: Ub-AMC deubiquitination assay, human DUB module. Format: biochemical. The conditions noted are these: 200 nM DUB, 1 μM Ub-AMC; read-out: Ki (apparent, Morrison approximation), Ub-AMC cleavage. The method, then:
FIG. 2A is a graph of initial rates of Ub-AMC cleavage by hDUB module as a function of substrate concentration. […] FIGS. 2B-2G are graphs of each cyclic peptide, as indicated, tested for its ability to inhibit Ub-AMC cleavage in the presence of increasing amounts of the peptide into a reaction with a fixed amount of DUB (200 nM) and Ub-AMC (1 μM). Ki values were determined for each curve using the Morrison Ki approximation.
Ub-AMC deubiquitination assay A working stock mixture of either yDUBm or hDUBm was prepared in the presence of either DMSO (mock) or a dilution series of the cyclic peptide. […] Each enzyme:peptide mixture was incubated for 30 min at 30° C. in the case of yDUBm, and 37° C. in the case of hDUBm, with each enzyme complex at 1.033× the desired concentration (207 nM). The enzyme:peptide mixture ([…]) was added to 1 μL of 30 μM U b-AMC (7-amino-4-methylcoumarin) (Boston Biochem), for a final concentration of 200 nM DUBm, the indicated cyclic peptide concentration, and 1 μM Ub-AMC. DUB activity was measured by observing the increase in AMC fluorescence in a plate reader, and the initial rate of fluorescence increase was calculated and plotted as a function of inhibitor concentration (FIGS. 2B-2I). The Ki values were determined using the Morrison approximation of enzyme inhibition equilibria within Prism (Graphpad).
The cyclic peptides that constituted potential inhibitors were chemically synthesized by solid phase peptide synthesis and tested for their effectiveness and specificity as inhibitors in vitro. Since the enzyme kinetics of the human DUB module had not previously been characterized, hDUBm activity was assayed using the fluorogenic substrate, ubiquitin-amino methyl coumarin (Ub-AMC) (FIG. 2A).

Data set [3] has as its target human DUB module (hDUBm) on H2B-K120 ubiquitinated nucleosomes (Homo sapiens, UniProt Q9UPT9). In words: Deubiquitination of nucleosomal H2B by hDUBm. The conditions noted are these: 1 μM cyclic peptide, 200 nM hDUBm, 1 uM H2B-Ub nucleosome.
Procedure: Deubiquitination of nucleosomal H2B Recombinant human mononucleosomes containing histone H2B ubiquitinated at K120 (H2B-Ub) were obtained from Epicypher (dNuc, 16-0370) and diluted to 2 μM with reaction buffer. Both hDUBm and inhibitor peptides were diluted from concentrated stocks with reaction buffer (10 mM HEPES pH 7.5, 150 mM NaCl, 1 μM ZnCl2, and 0.2 mM TCEP) to a final concentration of 400 nM DUB module and 2 μM cyclic peptide and incubated at 37° C. for 20 minutes. Reactions were initiated by combining equal volumes of the enzyme-peptide mixture and nucleosomes, resulting in final concentrations of 200 nM hDUBm, 1 μM cyclic peptide, and 1 uM H2B-Ub nucleosome. Time points of the reaction were quenched with SDS sample buffer, separated by SDS-PAGE (Invitrogen, Bolt gels), and stained with Sypro Ruby (Life Technologies). Gels were imaged and quantitated (BioRad product info), using the H3 band as an independent load control to normalize the band intensities of H2B-Ub. Experiments were done in triplicate and analyzed using Prism (GraphPad).
To test the effectiveness of the inhibitors on a native-like substrate, the ability of each cyclic peptide to inhibit DUB activity on nucleosomes ubiquitinated at H2B-K120 was assayed.
For data set [4], the system named is H2B-Ub levels in HEK293T cells. In words: Cell-based assay of H2B-Ub levels (histone extraction, western blot). The conditions noted are these: 5 μM, two hours, normalized to H3. Also noted: species or system human. How it is done: Bottom: anti-histone H3 loading control.
Cell-based Assay HEK293T cells were purchased from ATCC (CRL-3216) and cultures were expanded for at least 10 passages in Dulbecco's Modified Eagle Medium (DMEM) supplemented with 10% fetal bovine serum (FBS) in T75 flasks incubated in a 37° C. and 5% CO2 cabinet before any manipulation. Once cells were mature, HEK293T cells were grown to 80% confluence in 6-well plates, the media were aspirated, and media with reduced FBS (DMEM, 2% FBS) and 5 μM cyclic peptide were introduced. After two hours, the media were aspirated, and the cells were collected by scraping (˜1×10^6 cells per well). The cells were then washed in 1× PBS twice followed by histone extraction (Active Motif). The extracted histones were then western blotted for H2B-Ub levels (Cell Signaling, 5546S), using H3 western blotting (Abcam, ab1791) to normalize loading.
Each cyclic peptide was introduced as a supplement to the growth medium of HEK293T cells, the histones were extracted from each culture after two hours of exposure, and the levels of H2B-Ub was quantified by immunoblot. Levels of H2B-Ub were compared to control cells that were treated with DMSO, the yD1 cyclic peptide that has no effect on USP22 activity, or the broad-spectrum cell permeable DUB inhibitor. PR-619. The relative abundance of histone H3 was used to control for differences in nuclear extraction.
(In western blotting, separated proteins are transferred to a membrane and probed.)

The text below walks through data of patent US20240228543A1, “CYCLIC PEPTIDE INHIBITORS OF USP22” (THE JOHNS HOPKINS UNIVERSITY, priority 2021, published 2024).

Positions of bridges follow the written chain, without caps; N, C: chain ends. Non-standard residues stand in square brackets, D forms with d. Residues, ends and D or L forms follow the SMILES beside them. Some results are limits rather than exact numbers.

T1 sequence (Q9UPT9 whole entry): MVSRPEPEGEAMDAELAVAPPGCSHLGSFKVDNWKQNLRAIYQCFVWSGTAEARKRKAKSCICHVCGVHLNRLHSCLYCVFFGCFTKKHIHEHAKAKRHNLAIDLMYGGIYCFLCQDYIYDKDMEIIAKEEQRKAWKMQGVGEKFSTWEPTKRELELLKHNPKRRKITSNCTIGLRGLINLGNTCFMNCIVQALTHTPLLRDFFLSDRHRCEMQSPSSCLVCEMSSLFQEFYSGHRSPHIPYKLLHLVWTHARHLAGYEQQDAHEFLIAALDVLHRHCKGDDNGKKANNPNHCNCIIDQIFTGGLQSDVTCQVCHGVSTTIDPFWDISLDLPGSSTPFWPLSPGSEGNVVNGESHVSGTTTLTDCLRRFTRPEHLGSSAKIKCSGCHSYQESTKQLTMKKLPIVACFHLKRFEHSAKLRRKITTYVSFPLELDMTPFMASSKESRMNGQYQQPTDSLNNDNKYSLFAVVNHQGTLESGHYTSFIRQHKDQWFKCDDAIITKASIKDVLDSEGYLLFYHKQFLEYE
T1 sequence (O15265 3-151 partner limits assumed): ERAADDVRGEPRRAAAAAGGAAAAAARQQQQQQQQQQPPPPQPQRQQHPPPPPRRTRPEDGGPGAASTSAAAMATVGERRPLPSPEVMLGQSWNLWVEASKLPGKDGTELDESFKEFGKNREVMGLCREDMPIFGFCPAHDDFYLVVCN
T1 sequence (Q14CW9 whole entry partner): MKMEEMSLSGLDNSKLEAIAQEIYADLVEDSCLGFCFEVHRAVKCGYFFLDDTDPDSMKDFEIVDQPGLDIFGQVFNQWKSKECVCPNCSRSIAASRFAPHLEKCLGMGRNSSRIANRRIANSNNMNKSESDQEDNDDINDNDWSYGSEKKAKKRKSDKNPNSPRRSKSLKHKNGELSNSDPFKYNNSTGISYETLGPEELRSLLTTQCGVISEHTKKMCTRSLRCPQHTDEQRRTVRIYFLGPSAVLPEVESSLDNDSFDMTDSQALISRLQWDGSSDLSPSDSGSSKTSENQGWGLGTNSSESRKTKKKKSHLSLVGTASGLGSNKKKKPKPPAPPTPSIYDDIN
T1 sequence (Q9NPA8 whole entry partner): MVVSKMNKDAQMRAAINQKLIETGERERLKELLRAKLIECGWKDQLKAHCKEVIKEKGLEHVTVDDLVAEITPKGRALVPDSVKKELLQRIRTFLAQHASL
human DUB module (hDUBm) on H2B-K120 ubiquitinated nucleosomes, sequence (Q9UPT9 whole entry): as the sequence (Q9UPT9 whole entry) above
human DUB module (hDUBm) on H2B-K120 ubiquitinated nucleosomes, sequence (O15265 3-151 partner limits assumed): as the sequence (O15265 3-151 partner limits assumed) above
human DUB module (hDUBm) on H2B-K120 ubiquitinated nucleosomes, sequence (Q14CW9 whole entry partner): as the sequence (Q14CW9 whole entry partner) above
human DUB module (hDUBm) on H2B-K120 ubiquitinated nucleosomes, sequence (Q9NPA8 whole entry partner): as the sequence (Q9NPA8 whole entry partner) above

On to `CC(C)C[C@@H]1NC(=O)[C@H](Cc2ccc(O)cc2)NC(=O)CSC[C@@H](C(N)=O)NC(=O)[C@H](Cc2ccc(O)cc2)NC(=O)[C@H](CC(C)C)NC(=O)[C@H](CCCNC(=N)N)NC(=O)[C@H](CC(C)C)NC(=O)[C@H](CO)NC(=O)[C@H](Cc2c[nH]c3ccccc23)NC(=O)CNC(=O)[C@H](Cc2ccccc2)NC(=O)[C@H](CO)NC(=O)[C@H](Cc2ccccc2)NC(=O)[C@H](C)NC(=O)[C@H](CO)NC(=O)[C@H](CC(=O)O)NC(=O)[C@H](Cc2c[nH]cn2)NC1=O` [yL1] ({CH2CO}-YLHDSAFSFGWSLRLYC-NH2; thioether N-17), for which the “solubility in aqueous conditions” value in data set [1] is listed as “insoluble in aqueous conditions”.

As for `C[C@@H]1NC(=O)CNC(=O)[C@H](CCCNC(=N)N)NC(=O)[C@H](Cc2ccc(O)cc2)NC(=O)[C@H](CO)NC(=O)[C@H](Cc2c[nH]c3ccccc23)NC(=O)[C@H](CCC(N)=O)NC(=O)[C@H](Cc2c[nH]cn2)NC(=O)[C@@H](Cc2ccc(O)cc2)NC(=O)CSC[C@@H](C(N)=O)NC(=O)[C@H](CO)NC(=O)[C@H](CCCNC(=N)N)NC(=O)[C@H](Cc2ccc(O)cc2)NC(=O)[C@H]([C@@H](C)O)NC1=O` [hD2] ({CH2CO}-[dY]HQWSYRGATYRSC-NH2; thioether N-14), the Ki in data set [2] is below 100 nM. Regarding `CC[C@H](C)[C@@H]1NC(=O)[C@H](Cc2c[nH]cn2)NC(=O)[C@H](CC(=O)O)NC(=O)[C@H](CO)NC(=O)[C@H](Cc2c[nH]c3ccccc23)NC(=O)[C@H](Cc2ccccc2)NC(=O)[C@H](CCCNC(=N)N)NC(=O)[C@H](Cc2ccccc2)NC(=O)[C@H](CC(N)=O)NC(=O)[C@H](CC(C)C)NC(=O)[C@H]([C@@H](C)O)NC(=O)[C@H](Cc2ccc(O)cc2)NC(=O)CSC[C@@H](C(N)=O)NC(=O)[C@H](CO)NC(=O)[C@H](Cc2ccc(O)cc2)NC(=O)[C@H](Cc2c[nH]c3ccccc23)NC(=O)[C@H](CO)NC1=O` [hL1] ({CH2CO}-YTLNFRFWSDHISWYSC-NH2; thioether N-17), the Ki in data set [2] was below 100 nM. As for `CC[C@H](C)[C@@H]1NC(=O)[C@H](Cc2c[nH]c3ccccc23)NC(=O)[C@@H](Cc2ccc(O)cc2)NC(=O)CSC[C@@H](C(N)=O)NC(=O)[C@H](Cc2ccccc2)NC(=O)[C@H](CO)NC(=O)[C@H](CCCCN)NC(=O)[C@H](CO)NC(=O)[C@H](CC(C)C)NC(=O)CNC(=O)[C@H](CCCNC(=N)N)NC(=O)[C@H](Cc2ccc(O)cc2)NC(=O)[C@H](CO)NC(=O)[C@H](Cc2c[nH]cn2)NC(=O)[C@H]([C@@H](C)O)NC1=O` [hD4] ({CH2CO}-[dY]WITHSYRGLSKSFC-NH2; thioether N-15), the Ki in data set [2] was found to be 804 nM. With `CC(C)C[C@@H]1NC(=O)[C@H](Cc2c[nH]c3ccccc23)NC(=O)[C@H](CO)NC(=O)[C@H](CCCNC(=N)N)NC(=O)[C@H](CC(C)C)NC(=O)[C@H](CCCNC(=N)N)NC(=O)[C@H](Cc2ccc(O)cc2)NC(=O)[C@H](Cc2ccc(O)cc2)NC(=O)[C@H](CO)NC(=O)[C@@H]2CCCN2C(=O)CNC(=O)[C@H](CC(N)=O)NC(=O)[C@@H](Cc2ccc(O)cc2)NC(=O)CSC[C@@H](C(N)=O)NC(=O)[C@H](CO)NC(=O)[C@H](CO)NC1=O` [hD3] ({CH2CO}-[dY]NGPSYYRLRSWLSSC-NH2; thioether N-16), the “inhibition of nucleosomal H2B-Ub cleavage by hDUBm” value in data set [3] was “inhibit the enzymatic activity”. For the molecule `N#CSc1cc(SC#N)c(N)nc1N` [PR-619], the “change of H2B-Ub levels” value in data set [4] was “minor increase”.
